In ChEMBL document CHEMBL4765379, “Synthesis and biological evaluation of diaryl urea derivatives designed as potential anticarcinoma agents using de novo structure-based lead optimization approach” (Eur J Med Chem, 2020):

Columns and labels:
[1] = tested on: HT-29; experiment: Antiproliferative activity against human HT-29 cells assessed as reduction in cell growth incubated for 48 hrs by MTT assay; assay type: functional, cell-based; conditions: HT-29, 48 h
[2] = tested on: A549; experiment: Antiproliferative activity against human A549 cells assessed as reduction in cell growth incubated for 48 hrs by MTT assay; assay type: functional, cell-based; conditions: A549, 48 h
[3] = tested on: HT-29; experiment: Induction of cell cycle arrest in human HT-29 cells assessed as S phase accumulation at 15 uM incubated for 48 hrs by PI staining based flow cytometry analysis (reference value: 36.98 %); assay type: functional
[4] = tested on: HT-29; experiment: Induction of cell cycle arrest in human HT-29 cells assessed as subG1 phase accumulation at 15 uM incubated for 48 hrs by PI staining based flow cytometry analysis (reference value: 0.06 %); assay type: functional
[5] = tested on: HT-29; experiment: Induction of apoptosis in human HT-29 cells assessed as necrotic cells at 15 uM incubated for 48 hrs by annexin V-FITC and PI staining based flow cytometry analysis (reference value: 9.68 %); assay type: functional
[6] = tested on: HT-29; experiment: Induction of cell cycle arrest in human HT-29 cells assessed as G2 phase accumulation at 15 uM incubated for 48 hrs by PI staining based flow cytometry analysis (reference value: 11.7 %); assay type: functional
[7] = tested on: HT-29; experiment: Induction of cell cycle arrest in human HT-29 cells assessed as G1 phase accumulation at 15 uM incubated for 48 hrs by PI staining based flow cytometry analysis (reference value: 56.39 %); assay type: functional
[8] = tested on: HT-29; experiment: Induction of apoptosis in human HT-29 cells assessed as viable cells at 15 uM incubated for 48 hrs by annexin V-FITC and PI staining based flow cytometry analysis (reference value: 88.2 %); assay type: functional; conditions: read-out: Activity
[9] = tested on: HT-29; experiment: Induction of apoptosis in human HT-29 cells assessed as early apoptotic cells at 15 uM incubated for 48 hrs by annexin V-FITC and PI staining based flow cytometry analysis (reference value: 1.01 %); assay type: functional

SMILES	IC50 [1] [µM]	IC50 [2] [µM]	also measured
O=C(Nc1ccc(OC(=O)c2cc3cc([N+](=O)[O-])ccc3s2)cc1)Nc1ccc(Oc2ccccc2)cc1	13.3	25.2	–
O=C(Nc1ccc(OC(=O)c2ccccc2)cc1)Nc1ccc(Cl)c(C(F)(F)F)c1	151	30.1	–
O=C(Nc1ccccc1)Nc1ccc(OC(=O)c2ccc(F)cc2)cc1	128	38.5	–
Cc1ccc(C(=O)Oc2ccc(NC(=O)Nc3ccccc3)cc2)cc1	19.9	18.9	–
O=C(Nc1ccccc1)Nc1ccc(NC(=O)c2ccccc2)cc1	12.7	23.9	–
O=C(Nc1ccccc1)Nc1ccc(OC(=O)Cc2ccccc2)cc1	185	153	–
CNC(=O)c1cc(Oc2ccc(NC(=O)Nc3ccc(Cl)c(C(F)(F)F)c3)cc2)ccn1 [SORAFENIB]	17.3	5.62	Activity [3]: 12.19%; Activity [4]: 1.69%; Activity [5]: 8.72%; Activity [6]: 14.54%; Activity [7]: 75.23%; viability at 15 µM [8]: 81.3%; Activity [9]: 5.76%
CC(=O)c1cccc(NC(=O)Nc2ccc(OC(=O)c3cc4cc([N+](=O)[O-])ccc4s3)cc2)c1	457	61.5	–
O=C(Nc1ccc(OC(=O)c2ccc(Cl)cc2)cc1)Nc1ccc(Cl)c(C(F)(F)F)c1	8.32	6.62	–
